{
  "source": "patent US12358918B2",
  "about": "“Aryl hydrocarbon receptor (AHR) activator compounds as cancer therapeutics” (THE BROAD INSTITUTE, INC., priority 2018, dated 2025)",
  "key": {"[1]": {"tested_on": "MDA-MB-468 breast cancer cells", "test": "Western immunoblot of treated cells over 24 hours", "type": "cell-based", "settings": "FIG. 18", "protocol": "Adherent cells were washed once with cold 1×PBS (Corning #01018002) and lysed with RIPA buffer (Sigma #R0278) supplemented by protease and phosphatase inhibitors (Sigma). Protein content was quantified using the DC Protein Assay (BioRad #5000111). Samples were reduced with (loading buffer) and boiled at 95° C. before being resolved by SDS gel electrophoresis on 4-20% Tris/glycine gels (Invitrogen). Proteins were transferred using the IBlot2 (Thermo #IB21001) onto the iBlot™ 2 nitrocellulose Transfer Stacks (Thermo #IB23001). The membranes were then blocked in Odyssey Blocking Buffer (Li-COR #927-40000) for one hour, and then probed overnight with primary antibodies diluted in blocking buffer. The following day, membranes were washed 3×5 mins with 1×TBST and then probed with LiCOR Infrared secondary antibodies for 1 hour at room temperature. Membranes were washed an additional 3×5 mins in 1×TBST and then imaged using the LiCOR Imager. […]"}, "[2]": {"tested_on": "MDA-MB-231 breast cancer cell lines", "test": "cytotoxicity, control cells vs cells overexpressing CYP1A1", "type": "cell-based", "excerpt": "The dependence of each compound's cytotoxic effects upon CYP1A1 was also examined, via screening of MDA-MB-231 breast cancer cell lines for cytotoxic response. The CYP1A1-dependence of the cytotoxic response of to each tested compound was specifically determined by comparing the cytotoxicity of each compound administered to control cells with that of the compound administered to corresponding cells that overexpressed CYP1A1. […]"}, "[3]": {"molecular_target": "T1, recombinant human Adenosine A3 (FAST-004C) receptor (Homo sapiens, UniProt P0DMS8)", "T1 sequence (P0DMS8 1-318)": "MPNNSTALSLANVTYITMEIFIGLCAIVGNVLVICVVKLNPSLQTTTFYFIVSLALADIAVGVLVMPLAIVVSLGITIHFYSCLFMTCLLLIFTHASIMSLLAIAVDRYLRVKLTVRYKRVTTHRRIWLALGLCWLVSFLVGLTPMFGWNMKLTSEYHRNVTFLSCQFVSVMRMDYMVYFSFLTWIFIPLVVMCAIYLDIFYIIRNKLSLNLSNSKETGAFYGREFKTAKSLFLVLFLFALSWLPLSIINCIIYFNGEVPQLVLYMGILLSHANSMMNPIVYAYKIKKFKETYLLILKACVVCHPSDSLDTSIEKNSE", "test": "cAMP HTRF assay, Adenosine A3 receptor, antagonist mode", "type": "cell-based"}, "[4]": {"molecular_target": "T2, recombinant human Adenosine A2B (FAST-003C) receptor (Homo sapiens, UniProt P29275)", "T2 sequence (P29275 1-332)": "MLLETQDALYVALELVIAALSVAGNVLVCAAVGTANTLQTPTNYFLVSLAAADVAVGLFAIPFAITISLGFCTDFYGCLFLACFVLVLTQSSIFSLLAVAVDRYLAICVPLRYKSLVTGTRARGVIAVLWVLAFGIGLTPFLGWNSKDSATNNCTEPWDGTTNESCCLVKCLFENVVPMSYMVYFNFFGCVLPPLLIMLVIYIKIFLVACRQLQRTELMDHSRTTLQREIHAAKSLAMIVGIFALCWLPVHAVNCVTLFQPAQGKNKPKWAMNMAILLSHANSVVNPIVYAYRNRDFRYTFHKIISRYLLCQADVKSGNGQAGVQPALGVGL", "test": "cAMP HTRF assay, Adenosine A2B receptor, antagonist mode", "design": "inhibition: dose or concentration left out as unconfirmed"}, "[5]": {"molecular_target": "T3, recombinant human Adenosine A1 (FAST-001C) receptor (Homo sapiens, UniProt P30542)", "T3 sequence (P30542 1-326)": "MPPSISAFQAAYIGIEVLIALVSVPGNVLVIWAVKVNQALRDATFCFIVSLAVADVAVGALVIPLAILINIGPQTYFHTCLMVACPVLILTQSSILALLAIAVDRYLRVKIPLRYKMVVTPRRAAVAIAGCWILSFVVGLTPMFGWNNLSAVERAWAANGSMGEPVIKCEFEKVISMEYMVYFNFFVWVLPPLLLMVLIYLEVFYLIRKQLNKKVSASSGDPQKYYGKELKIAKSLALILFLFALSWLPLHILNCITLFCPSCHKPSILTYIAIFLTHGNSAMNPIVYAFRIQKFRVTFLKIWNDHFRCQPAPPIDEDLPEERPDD", "test": "cAMP HTRF assay, Adenosine A1 receptor, antagonist mode", "design": "inhibition: dose or concentration left out as unconfirmed"}, "[6]": {"tested_on": "MDA-MB-468 and ZR51 breast cancer and JHH7 liver cancer cell lines"}, "[7]": {"tested_on": "MDA-MB-468 and ZR-75-1 cell lines", "settings": "AHR sg3 / AHR sg4 knockout vs GFP sg1 or parental Cas9; FIGS. 13A and 13B"}, "[8]": {"molecular_target": "recombinant human Adenosine A2A (FAST-002C) receptor (Homo sapiens, UniProt P29274)", "sequence (P29274 whole entry)": "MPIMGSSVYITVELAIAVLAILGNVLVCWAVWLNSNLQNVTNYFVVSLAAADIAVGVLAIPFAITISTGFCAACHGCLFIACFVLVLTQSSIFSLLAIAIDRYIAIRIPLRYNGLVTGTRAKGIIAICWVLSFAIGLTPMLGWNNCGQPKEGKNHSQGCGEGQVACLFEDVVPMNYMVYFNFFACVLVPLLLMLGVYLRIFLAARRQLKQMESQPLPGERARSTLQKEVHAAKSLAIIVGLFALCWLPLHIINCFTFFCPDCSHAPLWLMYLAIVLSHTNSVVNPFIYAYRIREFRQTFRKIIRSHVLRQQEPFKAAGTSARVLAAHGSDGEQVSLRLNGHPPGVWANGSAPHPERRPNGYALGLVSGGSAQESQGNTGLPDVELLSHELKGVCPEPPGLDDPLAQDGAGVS", "test": "cAMP HTRF assay, Adenosine A2A receptor, antagonist mode", "type": "cell-based"}, "[9]": {"tested_on": "ZR-75-1 and MDA-MB-468 cells harboring an AGR2 knockout", "settings": "CRISPR-Cas9 AGR2 knockout; FIGS. 10A-10D"}, "[10]": {"settings": "CHO-K1, read-out: % Inhibition Average at maximal concentration"}, "[11]": {"settings": "antagonist mode dose-response fit"}, "[12]": {"settings": "HEK293, read-out: % Inhibition Average at maximal concentration"}},
  "data": [
    {"smiles": "Nc1nc2ccc(Cl)cc2c2nc(-c3ccco3)nn12", "note": "[CGS-15943, reference compound]", "values": [
      {"measurement": "CYP1A1 expression", "setting": "[1]; 24 hour time course", "value": "induced CYP1A1 expression"},
      {"measurement": "FOXA1 levels", "setting": "[1]; 24 hour time course", "value": "maintenance of FOXA1 levels"},
      {"measurement": "DNA double stranded breaks (pH2A.X) and PARP cleavage", "setting": "[1]; within 24 hours", "value": "induced DNA double stranded breaks and PARP cleavage"},
      {"measurement": "CYP1A1-dependence of the cytotoxic response", "setting": "[2]", "value": "CYP1A1-dependent cytotoxic"},
      {"measurement": "inhibition at 10 µM", "setting": "[3]; [10]", "value": 68.9, "unit": "%"},
      {"measurement": "Hill Coefficient", "setting": "[3]; [11]", "value": 1.66},
      {"measurement": "IC50", "setting": "[3]; antagonist mode, CHO-K1, reference agonist IB-MECA", "value": 2090, "unit": "nM"},
      {"measurement": "inhibition", "setting": "[4]; [12]", "value": 120, "unit": "%"},
      {"measurement": "Hill Coefficient", "setting": "[4]; [11]", "value": 1.75},
      {"measurement": "inhibition", "setting": "[5]; [10]", "value": 106, "unit": "%"},
      {"measurement": "Hill Coefficient", "setting": "[5]; [11]", "value": 0.92},
      {"measurement": "AHR-dependence of the cytotoxic response", "setting": "[6]", "value": "dependence upon AHR"},
      {"measurement": "dependence of cytotoxic activity on AHR", "setting": "[7]", "value": "required intact AHR expression"},
      {"measurement": "inhibition at 10 µM", "setting": "[8]; [12]", "value": 125, "unit": "%"},
      {"measurement": "Hill Coefficient", "setting": "[8]; [11]", "value": 1.25},
      {"measurement": "rescue of cytotoxicity by AGR2 knockout", "setting": "[9]", "value": "not rescued by AGR2 knockout"}
    ]}
  ]
}
